Measurements published in the NIST ThermoML archive (doi:10.1021/je4004806).

Experiment: xn = mol fraction of the nth substance listed
Conditions: 101 kPa, Liquid; for viscosity: Capillary tube (Ostwald / Ubbelohde) method; for mass density: Vibrating tube method

CCCCCO [pentan-1-ol] + CCCCCCCC
Conditions | mass density [kg/m3] | viscosity [mPa·s]
293.15 K, x2 = 0 | 814.59 | 4.042
293.15 K, x2 = 0.1004 | 798.43 | 2.938
293.15 K, x2 = 0.201 | 783.65 | 2.237
293.15 K, x2 = 0.3001 | 770.3 | 1.695
293.15 K, x2 = 0.4 | 757.91 | 1.311
293.15 K, x2 = 0.4984 | 746.71 | 1.046
293.15 K, x2 = 0.5967 | 736.39 | 0.863
293.15 K, x2 = 0.6976 | 726.7 | 0.737
293.15 K, x2 = 0.7983 | 717.79 | 0.652
293.15 K, x2 = 0.8998 | 709.68 | 0.588
298.15 K, x2 = 0 | 810.93 | 3.518
298.15 K, x2 = 0.1004 | 794.68 | 2.568
298.15 K, x2 = 0.201 | 779.81 | 1.972
298.15 K, x2 = 0.3001 | 766.39 | 1.509
298.15 K, x2 = 0.4 | 753.94 | 1.18
298.15 K, x2 = 0.4984 | 742.7 | 0.953
298.15 K, x2 = 0.5967 | 732.34 | 0.796
298.15 K, x2 = 0.6976 | 722.64 | 0.685
298.15 K, x2 = 0.7983 | 713.72 | 0.605
298.15 K, x2 = 0.8998 | 705.59 | 0.55
303.15 K, x2 = 0 | 807.24 | 3.06
303.15 K, x2 = 0.1004 | 790.89 | 2.254
303.15 K, x2 = 0.201 | 775.94 | 1.747
303.15 K, x2 = 0.3001 | 762.45 | 1.349
303.15 K, x2 = 0.4 | 749.95 | 1.068
303.15 K, x2 = 0.4984 | 738.67 | 0.873
303.15 K, x2 = 0.5967 | 728.27 | 0.736
303.15 K, x2 = 0.6976 | 718.55 | 0.638
303.15 K, x2 = 0.7983 | 709.62 | 0.567
303.15 K, x2 = 0.8998 | 701.48 | 0.516
308.15 K, x2 = 0 | 803.53 | 2.659
308.15 K, x2 = 0.1004 | 787.09 | 1.984
308.15 K, x2 = 0.201 | 772.05 | 1.564
308.15 K, x2 = 0.3001 | 758.49 | 1.219
308.15 K, x2 = 0.4 | 745.93 | 0.971
308.15 K, x2 = 0.4984 | 734.6 | 0.802
308.15 K, x2 = 0.5967 | 724.18 | 0.682
308.15 K, x2 = 0.6976 | 714.44 | 0.596
308.15 K, x2 = 0.7983 | 705.49 | 0.532
308.15 K, x2 = 0.8998 | 697.35 | 0.486
313.15 K, x2 = 0 | 799.79 | 2.334
313.15 K, x2 = 0.1004 | 783.26 | 1.755
313.15 K, x2 = 0.201 | 768.13 | 1.393
313.15 K, x2 = 0.3001 | 754.5 | 1.11
313.15 K, x2 = 0.4 | 741.88 | 0.882
313.15 K, x2 = 0.4984 | 730.52 | 0.738
313.15 K, x2 = 0.5967 | 720.07 | 0.636
313.15 K, x2 = 0.6976 | 710.3 | 0.557
313.15 K, x2 = 0.7983 | 701.34 | 0.499
313.15 K, x2 = 0.8998 | 693.2 | 0.457
318.15 K, x2 = 0 | 796.03 | 2.042
318.15 K, x2 = 0.1004 | 779.4 | 1.557
318.15 K, x2 = 0.201 | 764.17 | 1.249
318.15 K, x2 = 0.3001 | 750.47 | 1.01
318.15 K, x2 = 0.4 | 737.81 | 0.807
318.15 K, x2 = 0.4984 | 726.4 | 0.681
318.15 K, x2 = 0.5967 | 715.92 | 0.589
318.15 K, x2 = 0.6976 | 706.14 | 0.521
318.15 K, x2 = 0.7983 | 697.16 | 0.47
318.15 K, x2 = 0.8998 | 689.02 | 0.431
323.15 K, x2 = 0 | 792.23 | 1.805
323.15 K, x2 = 0.1004 | 775.5 | 1.389
323.15 K, x2 = 0.201 | 760.18 | 1.117
323.15 K, x2 = 0.3001 | 746.41 | 0.911
323.15 K, x2 = 0.4 | 733.69 | 0.74
323.15 K, x2 = 0.4984 | 722.24 | 0.63
323.15 K, x2 = 0.5967 | 711.74 | 0.549
323.15 K, x2 = 0.6976 | 701.94 | 0.488
323.15 K, x2 = 0.7983 | 692.95 | 0.442
323.15 K, x2 = 0.8998 | 684.81 | 0.406
